For 15 molecules, TGI and GI50 results are on record in PubChem BioAssay (NCI).

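Results reflect a 48-hour exposure of cells in 96-well plates to compound at five concentrations. GI50 = concentration required for 50% inhibition of growth. TGI: concentration producing complete growth inhibition.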

Test systems include HCC-2998 colon; M14 melanoma; A498 renal; HT29 colon; 786-0 renal; UACC-257 melanoma; OVCAR-4 ovarian; SK-MEL-5 melanoma; CAKI-1 renal; DU-145 prostate.
Common to all, as to test: NCI-60 cell line screen, 48 h

For `Cc1cc(Cl)ccc1NC(=O)CC1SC(=NC(=O)c2ccccc2Cl)NC1=O` (centres undefined), the TGI in the experiment on HCC-2998 colon is > 100 µM; in the experiment with M14 melanoma, 32 µM; in the experiment on A498 renal it was > 100 µM; in the experiment on HT29 colon, 45 µM; in the experiment with 786-0 renal, 35.7 µM; in the experiment on UACC-257 melanoma, 38.6 µM. Besides, the TGI is 38.6 µM with OVCAR-4 ovarian, 95.7 µM in the experiment on SK-MEL-5 melanoma and 33.9 µM in the experiment on CAKI-1 renal.

Take `O=C(CN(Cc1ccccc1)Cc1ccccc1)N1CCc2c([nH]c3ccccc23)C1c1cccnc1` (centres undefined): the TGI was > 100 µM in the experiment with HCC-2998 colon; 14.2 µM in the experiment on M14 melanoma; 61.5 µM with A498 renal; 19.7 µM in the experiment with HT29 colon; 33.4 µM in the experiment on 786-0 renal; > 100 µM in the experiment on UACC-257 melanoma. The TGI with OVCAR-4 ovarian is > 100 µM; in the experiment on SK-MEL-5 melanoma it was 20.1 µM; in the experiment on CAKI-1 renal it was > 100 µM.

On to `O=C(O)CCC(=O)Oc1ccc(O)c2c1CCCC2=O`, for which the TGI in the experiment on HCC-2998 colon, with M14 melanoma, with A498 renal, with HT29 colon, with 786-0 renal and in the experiment with UACC-257 melanoma was > 100 µM each time. The TGI with OVCAR-4 ovarian and in the experiment on SK-MEL-5 melanoma was > 100 µM in each case.

In the case of `N#CC(C#N)=Cc1ccc(C(O)P(=O)(O)O)cc1` (centres undefined), the TGI with HCC-2998 colon, with M14 melanoma, with A498 renal, in the experiment with HT29 colon, in the experiment with 786-0 renal and in the experiment with UACC-257 melanoma was > 100 µM throughout. Further, the TGI with OVCAR-4 ovarian, in the experiment on SK-MEL-5 melanoma and with CAKI-1 renal was > 100 µM in each case.

`COC(=O)C(=O)C(C#N)c1cccc(Cl)c1` (centres undefined): the TGI with HCC-2998 colon, in the experiment on M14 melanoma, in the experiment on A498 renal, in the experiment with HT29 colon, with 786-0 renal and with UACC-257 melanoma was > 100 µM in each case. The TGI with OVCAR-4 ovarian, with SK-MEL-5 melanoma and with CAKI-1 renal was > 100 µM each time.

In the case of `CC12CCCC(C#N)(C1)OC2=O` (centres undefined), the TGI with M14 melanoma, with A498 renal, in the experiment with HT29 colon, with 786-0 renal, in the experiment on UACC-257 melanoma and with OVCAR-4 ovarian was > 100 µM in each case. Further, the TGI with SK-MEL-5 melanoma and with CAKI-1 renal was > 100 µM throughout.

In the case of `CN1C(=O)/C(=C2\S/C(=N\c3nnc(-c4ccccc4)o3)NC2=O)c2ccccc21`, the GI50 was > 100 µM in the experiment with HCC-2998 colon; > 100 µM in the experiment on M14 melanoma; > 100 µM in the experiment on HT29 colon; > 100 µM in the experiment on DU-145 prostate; > 100 µM in the experiment with 786-0 renal; 34.4 µM in the experiment with UACC-257 melanoma. For the same molecule, the values for the GI50 in the experiment with OVCAR-4 ovarian, in the experiment with SK-MEL-5 melanoma and with CAKI-1 renal were > 100 µM, 90.1 µM and 51.8 µM, respectively. The TGI in the experiment on HCC-2998 colon, in the experiment with M14 melanoma, in the experiment with HT29 colon, in the experiment on DU-145 prostate, with 786-0 renal and in the experiment on UACC-257 melanoma was > 100 µM in each case. The TGI in the experiment on OVCAR-4 ovarian, with SK-MEL-5 melanoma and in the experiment with CAKI-1 renal was > 100 µM in each case.

Consider `O=C1c2cccc([N+](=O)[O-])c2C(=O)c2nccnc21`, for which the TGI with HCC-2998 colon was found to be 6.17 µM; in the experiment with M14 melanoma, 2.96 µM; in the experiment on A498 renal it was 17.3 µM; in the experiment with HT29 colon, 4.3 µM; with 786-0 renal it was 3.2 µM; in the experiment with UACC-257 melanoma it was 1.66 µM. The TGI was 2.8 µM in the experiment on OVCAR-4 ovarian, 1.13 µM with SK-MEL-5 melanoma and 16.4 µM in the experiment with CAKI-1 renal.

In the case of `O=C[C@]12CC=C3OC4OC5(CCCCC5)OC4[C@H]3[C@H]1C(=O)C=CC2=O` (some centres undefined), the TGI in the experiment on HCC-2998 colon was 90.8 µM; in the experiment with M14 melanoma, 38.7 µM; in the experiment with A498 renal, > 100 µM; in the experiment on HT29 colon, > 100 µM; in the experiment on 786-0 renal it was 21.5 µM; in the experiment on UACC-257 melanoma, 45.3 µM. Moreover, the TGI in the experiment with OVCAR-4 ovarian was determined as 31.7 µM; in the experiment on SK-MEL-5 melanoma it was 35.5 µM; with CAKI-1 renal it was 74.6 µM.

Consider `CCOC(=O)NC(=O)c1cn(CCCCCCCCCCC(=O)NCCCN2CCN(CCCNC(=O)CCCCCCCCCCn3cc(C(=O)NC(=O)OCC)c(=O)[nH]c3=O)CC2)c(=O)[nH]c1=O`, for which the TGI was > 100 µM in the experiment with HCC-2998 colon; > 10 µM in the experiment on M14 melanoma; > 100 µM in the experiment with A498 renal; > 100 µM in the experiment with HT29 colon; > 100 µM with 786-0 renal; > 100 µM with UACC-257 melanoma. Also, in the experiment on CAKI-1 renal, the TGI was > 10 µM.

As to `COc1cccc(CCNC(=O)CC(c2ccccc2)(c2ccccc2)c2ccccc2)c1`, the GI50 is 26.8 µM with DU-145 prostate; 10.6 µM in the experiment on 786-0 renal; > 100 µM in the experiment with OVCAR-4 ovarian; 4.84 µM in the experiment on SK-MEL-5 melanoma; 3.16 µM with CAKI-1 renal. Moreover, the TGI with DU-145 prostate was > 100 µM; with 786-0 renal, > 100 µM; in the experiment on OVCAR-4 ovarian it was > 100 µM; in the experiment on SK-MEL-5 melanoma it was > 100 µM; in the experiment with CAKI-1 renal, 50.9 µM.

Turning to `O=CC1CCC=CC1NC(=O)OCc1ccccc1` (centres undefined), the TGI in the experiment on M14 melanoma, in the experiment with HT29 colon, in the experiment on 786-0 renal, in the experiment with UACC-257 melanoma, in the experiment with OVCAR-4 ovarian and with SK-MEL-5 melanoma was > 100 µM throughout. For the same molecule, in the experiment on CAKI-1 renal, the TGI was > 100 µM.

As for `Cn1nc(-c2ccccc2)c2c(/C=C/c3ccc(Cl)cc3)onc2c1=O`, the TGI in the experiment on M14 melanoma was > 100 µM; with HT29 colon, > 100 µM; in the experiment on 786-0 renal, 66 µM; in the experiment with SK-MEL-5 melanoma, > 100 µM.

Regarding `CN1C(c2ccccc2)CC(C)(O)CC1c1ccccc1` (centres undefined), the TGI in the experiment on HCC-2998 colon, in the experiment with M14 melanoma, in the experiment on A498 renal, with HT29 colon, in the experiment on 786-0 renal and in the experiment on UACC-257 melanoma was > 100 µM each time. In addition, the TGI in the experiment with OVCAR-4 ovarian, with SK-MEL-5 melanoma and with CAKI-1 renal was > 100 µM throughout.

On to `O=C1C(Cl)=C(Cl)C(=O)N1c1ccccc1Cl`, for which the TGI with HCC-2998 colon, in the experiment on M14 melanoma, in the experiment on A498 renal, in the experiment with HT29 colon, with 786-0 renal and in the experiment with UACC-257 melanoma was > 100 µM each time. In addition, the TGI with OVCAR-4 ovarian is > 100 µM; with SK-MEL-5 melanoma, > 100 µM; in the experiment with CAKI-1 renal, > 60.9 µM.
